Measured values from ChEMBL document CHEMBL6127052, “Discovery of membrane-targeting amphiphilic honokiol derivatives containing an oxazolethione moiety to combat methicillin-resistant Staphylococcus aureus (MRSA) infections” (Eur J Med Chem, 2024).
Converted amounts (≈) assume the structure as drawn.

What was measured:
Staphylococcus aureus [1] = assay: Antibacterial activity against methicillin-resistant Staphylococcus aureus clinical isolate M23 by CLSI based micro-broth dilution method; assay type: functional
Staphylococcus aureus [2] = assay: Antibacterial activity against Staphylococcus aureus ATCC 29213 by CLSI based micro-broth dilution method; assay type: functional
Staphylococcus aureus [3] = assay: Antibacterial activity against methicillin-resistant Staphylococcus aureus clinical isolate M17 by CLSI based micro-broth dilution method; assay type: functional
Staphylococcus aureus [4] = assay: Antibacterial activity against methicillin-resistant Staphylococcus aureus clinical isolate M14 by CLSI based micro-broth dilution method; assay type: functional
Staphylococcus aureus [5] = assay: Antibacterial activity against methicillin-resistant Staphylococcus aureus clinical isolate M13 by CLSI based micro-broth dilution method; assay type: functional
[6] = Selectivity index, ratio of HC50 for hemolytic activity in sheep erythrocytes to MIC for antibacterial activity against Staphylococcus aureus ATCC 29213; assay type: toxicity, cell-based, RBC
Escherichia coli = assay: Antibacterial activity against Escherichia coli ATCC 25922 by CLSI based micro-broth dilution method; assay type: functional
Staphylococcus aureus [7] = assay: Antibacterial activity against methicillin-resistant Staphylococcus aureus clinical isolate M16 by CLSI based micro-broth dilution method; assay type: functional
Staphylococcus aureus [8] = assay: Antibacterial activity against methicillin-resistant Staphylococcus aureus clinical isolate M12 by CLSI based micro-broth dilution method; assay type: functional
Staphylococcus aureus [9] = assay: Antibacterial activity against methicillin-resistant Staphylococcus aureus clinical isolate M21 by CLSI based micro-broth dilution method; assay type: functional
Staphylococcus aureus [10] = assay: Antibacterial activity against methicillin-resistant Staphylococcus aureus N315 by CLSI based micro-broth dilution method; assay type: functional
Staphylococcus aureus [11] = assay: Antibacterial activity against methicillin-resistant Staphylococcus aureus clinical isolate M20 by CLSI based micro-broth dilution method; assay type: functional
[12] = Hemolytic activity in sheep erythrocytes incubated for 1 hr by absorbance based assay; assay type: toxicity, cell-based, Ovis aries, Erythrocyte
Staphylococcus aureus [13] = assay: Antibacterial activity against methicillin-resistant Staphylococcus aureus clinical isolate M22 by CLSI based micro-broth dilution method; assay type: functional
Staphylococcus aureus [14] = assay: Antibacterial activity against methicillin-resistant Staphylococcus aureus clinical isolate M11 by CLSI based micro-broth dilution method; assay type: functional

SMILES | MIC (Staphylococcus aureus [1]) [µg/mL] | MIC (Staphylococcus aureus [2]) [µg/mL] | MIC (Staphylococcus aureus [3]) [µg/mL] | MIC (Staphylococcus aureus [4]) [µg/mL] | MIC (Staphylococcus aureus [5]) [µg/mL] | selectivity ratio [6] | MIC (Escherichia coli) [µg/mL] | MIC (Staphylococcus aureus [7]) [µg/mL] | MIC (Staphylococcus aureus [8]) [µg/mL] | MIC (Staphylococcus aureus [9]) [µg/mL] | MIC (Staphylococcus aureus [10]) [µg/mL] | MIC (Staphylococcus aureus [11]) [µg/mL] | HC50 at 1 h [12] [µg/mL] | MIC (Staphylococcus aureus [13]) [µg/mL] | MIC (Staphylococcus aureus [14]) [µg/mL]
C=CCc1cc(-c2ccc(OCCC[N+](C)(C)CC(=O)NCCCC)c(CC=C)c2)c2oc(=S)n(Cc3ccc(Cl)cc3Cl)c2c1.[Br-] | > 128 | > 128 | > 128 | > 128 | > 128 | 1.3 | > 128 | > 128 | > 128 | > 128 | 128 | > 128 | > 160 | > 128 | > 128
C=CCc1cc(-c2ccc(OCCC[N+](C)(C)CC(=O)NCCCC)c(CC=C)c2)c2oc(=S)n(Cc3ccc(Cl)cc3)c2c1.[Br-] | 16 | 16 | 8 | 16 | 8 | 32.5 | > 128 | 8 | 4 | 4 | 32 | 4 | 519 | 8 | 4
C=CCc1cc(-c2ccc(OCCC[N+](C)(C)CC(=O)NCCCC)c(CC=C)c2)c2oc(=S)n(Cc3ccccc3Br)c2c1.[Br-] | 64 | 128 | 64 | 128 | 128 | > 1.3 | > 128 | 64 | 16 | 32 | 128 | 64 | > 160 | 32 | 64
C=CCc1cc(-c2ccc(OCCC[N+](C)(C)CC(=O)NCCCC)c(CC=C)c2)c2oc(=S)n(Cc3c(Cl)cccc3Cl)c2c1.[Br-] | 8 | 16 | 16 | 16 | 16 | 25 | > 128 | 8 | 4 | 8 | 32 | 8 | 400 | 32 | 8
C=CCc1cc(-c2ccc(OCCC[N+](C)(C)CC(=O)NCCCC)c(CC=C)c2)c2oc(=S)n(Cc3ccc(Cl)cc3Br)c2c1.[Br-] | 128 | > 128 | > 128 | > 128 | > 128 | 0.7 | > 128 | 128 | > 128 | 128 | 128 | > 128 | 95.8 | 128 | 128
C=CCc1cc(-c2ccc(OCCC[N+](C)(C)CC(=O)NCCCC)c(CC=C)c2)c2oc(=S)n(Cc3cccc(OC)c3)c2c1.[Br-] | 8 | 8 | 8 | 4 | 8 | > 20 | > 128 | 4 | 4 | 4 | 8 | 4 | > 160 | 16 | 4
C=CCc1cc(-c2ccc(OCCC[N+](C)(C)CC(=O)NCCCC)c(CC=C)c2)c2oc(=S)n(Cc3ccccc3)c2c1.[Br-] | 4 | 8 | 8 | 4 | 4 | > 20 | > 128 | 4 | 4 | 4 | 8 | 8 | > 160 | 4 | 4
C=CCc1cc(-c2ccc(OCCC[N+](C)(C)CC(=O)NCCCC)c(CC=C)c2)c2oc(=S)n(Cc3ccc(Cl)cc3F)c2c1.[Br-] | > 128 | > 128 | > 128 | > 128 | > 128 | 1.3 | > 128 | > 128 | > 128 | > 128 | 128 | > 128 | > 160 | > 128 | > 128
C=CCc1cc(-c2ccc(OCCC[N+](C)(C)CC(=O)NCCCC)c(CC=C)c2)c2oc(=S)n(Cc3ccccc3Cl)c2c1.[Br-] | 4 | 4 | 16 | 16 | 8 | 241 | > 128 | 4 | 4 | 4 | 16 | 8 | 965 | 8 | 4
C=CCc1cc(-c2ccc(OCCC[N+](C)(C)CC(=O)NCCCC)c(CC=C)c2)c2oc(=S)n(Cc3ccc(Cl)c(Br)c3)c2c1.[Br-] | > 128 | > 128 | 128 | > 128 | > 128 | 1.3 | > 128 | > 128 | > 128 | 128 | > 128 | > 128 | > 160 | 128 | 128
C=CCc1cc(-c2ccc(OCCC[N+](C)(C)CC(=O)NCCCC)c(CC=C)c2)c2oc(=S)n(Cc3ccc(OC)cc3)c2c1.[Br-] | 8 | 32 | 16 | 2 | 4 | 1.8 | > 128 | 4 | 2 | 2 | 32 | 2 | 57.4 | 8 | 2
C=CCc1cc(-c2ccc(OCCC[N+](C)(C)CC(=O)NCCCC)c(CC=C)c2)c2oc(=S)n(Cc3cccc(Br)c3)c2c1.[Br-] | 16 | 16 | 32 | 8 | 8 | > 10 | > 128 | 8 | 8 | 16 | 16 | 8 | > 160 | 32 | 8
C=CCc1cc(-c2ccc(OCCC[N+](C)(C)CC(=O)NCCCC)c(CC=C)c2)c2oc(=S)n(Cc3cc(F)c(F)c(F)c3)c2c1.[Br-] | 2 | 2 | 4 | 2 | 4 | – | > 128 | 2 | 2 | 2 | 16 | 2 | 52.8 | 4 | 2
C[C@@H](O)[C@H]1C(=O)N2C(C(=O)O)=C(S[C@@H]3CN[C@H](C(=O)N(C)C)C3)[C@H](C)[C@H]12 [MEROPENEM] | – | – | – | – | – | – | 0.063 (≈ 0.164 µM) | – | – | – | – | – | – | – | –
